Entries after “also recorded” stand apart in the source; their conditions may differ. Like-named read-outs stand apart in the source and are kept apart here.
Tests used:
[1] = target: HCV 3CL proteinase (Human coronavirus 229E, UniProt P0C6X1); test: biochemical; assay type: binding, common cold virus (HCoV-229E antigenic type)
[2] = target: T1, SARS 3CL proteinase (Severe acute respiratory syndrome coronavirus, UniProt P0C6X7); test: biochemical; assay type: binding, SARS-CoV
[3] = target: T1, SARS 3CL proteinase; test: biochemical; parameters: species or system SARS-CoV

HCV 3CL proteinase, sequence (P0C6X1 2966-3267 limits assumed): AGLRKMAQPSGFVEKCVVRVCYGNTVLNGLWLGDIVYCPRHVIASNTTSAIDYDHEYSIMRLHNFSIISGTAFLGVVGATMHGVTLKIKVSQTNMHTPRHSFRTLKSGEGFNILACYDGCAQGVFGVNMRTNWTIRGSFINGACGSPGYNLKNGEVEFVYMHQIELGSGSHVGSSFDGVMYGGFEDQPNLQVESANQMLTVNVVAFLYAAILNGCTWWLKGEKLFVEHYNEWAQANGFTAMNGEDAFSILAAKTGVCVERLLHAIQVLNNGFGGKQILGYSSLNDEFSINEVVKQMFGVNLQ

Compound | affinity with HCV 3CL proteinases (in words) [1] | Kd ([1]; read-out: KD HCV 3CL) | coupling/affinity with SARS 3CL (in words) [2] | Kd ([2]; read-out: KD SARS 3CL) | Kd [1] | Kd [2] | IC50 [3] | melting point
O=c1c(OCC2COc3ccccc3O2)c(-c2cc(O)cc(O)c2)oc2cc(O)ccc12 (stereo not drawn) [IB-4, 3-(2,3-dihydro-benzo[1,4]dioxan-2-yl-methoxy)-3′,5′,7-trihydroxy-flavonol] | high affinity | 2.6 µM | couple strongly | 16.8 µM | – | – | – | –
C[C@H]1O[C@@H](Oc2c(-c3ccc(O)c(O)c3)oc3cc(O)cc(O)c3c2=O)[C@H](O)[C@@H](O)[C@H]1O [IA-4, Quercetin-3-O-β-D-fucopyranoside] | high affinity | – | couple strongly; also recorded: weaker affinity | – | 5.75 µM | 104 µM | 24.1 µM | –
O=c1c(O[C@@H]2O[C@H](CO)[C@@H](O)[C@H](O)[C@H]2O)c(-c2ccc(O)c(O)c2)oc2cc(O)cc(O)c12 [IA-1, Quercetin-3-O-β-D-glucopyranoside] | weaker affinity | – | – | – | 28.8 µM | – | – | –
O=c1c(OC2CCCCCC2)c(-c2ccc(O)c(O)c2)oc2cc(O)ccc12 [IB-3, 3-O-cycloheptyl-3′,4′,7-trihydroxy-flavonol] | high affinity | – | couple strongly | – | 1.51 µM | 33.5 µM | – | 68 to 71 °C
O=c1c(O[C@@H]2OC[C@@H](O)[C@@H](O)[C@@H]2O)c(-c2ccc(O)c(O)c2)oc2cc(O)cc(O)c12 [IA-3, Quercetin-3-O-β-D-arabinopyranoside] | high affinity | – | couple strongly | – | 3.76 µM | 13.2 µM | 31.6 µM | –
O=c1c(OC2CCCCC2)c(-c2ccc(O)c(O)c2)oc2cc(O)ccc12 [IB-1, 3-O-cyclohexyl-3′,4′,7-trihydroxy-flavonol] | high affinity | – | couple strongly | – | 3.52 µM | 33.7 µM | 33.1 µM | 98 to 100 °C

— patent US20090182133A1 (priority 2005, published 2009)
